Read-outs that look alike come from different tables or passages of the source. No end group written: not given here.
Tests used:
S. aureus ATCC 33592 = assay type: cell-based, Staphylococcus aureus; details: CAMB, 18 h, 37 °C, n = 4
Description: (§1) The strains that were used in this study (Table 2 and Table S1) were cultivated at 37 °C in cation-adjusted Mueller–Hinton broth (CAMB) in Erlenmeyer flasks, or on the same medium with agar in Petri dishes. Exceptionally, Mycobacterium smegmatis was cultivated at 37 °C in brain heart infusion (BHI) medium that was supplemented with 1% Tween-80 in Erlenmeyer flasks, or on the same medium lacking detergent but with agar in Petri dishes. Strains listed with Robert Koch Institute (RKI) strain numbers are clinical isolates from the RKI strain collection originating from hospitalized patients in Germany. The remaining strains originated from the Sanofi strain collection and they were originally purchased from the American Type Culture Collection or the German Collection of Microorganisms and Cell Cultures. Meropenem/colistin-resistant strains were maintained, as described above, with the appropriate antibiotic added at levels below the minimal inhibitory concentration (MIC).
(§2) The MIC values were determined in 384-well microtiter plates with an assay volume of 20 µL. Immediately before each assay, the cultures of test organisms (bacteria grown for 18 h, Candida albicans and M. smegmatis grown for 48 h) were diluted with the appropriate medium to a density of 1 × 10^6 cells/mL (C. albicans), 1 × 10^5 cells/mL (M. smegmatis) or 5 × 10^5 cells per mL (other species). […] We transferred 2-µL aliquots from this dilution series to new 384-well microtiter plates while using a CyBio-Well 384-channel automated pipettor (Analytic Jena, Jena, Germany) and added 18 µL of the diluted suspension of each test species using a Viafill reagent dispenser (Integra), thus reducing the final peptide concentration 10-fold to the range 1024–0.03125 µg/mL. […] The growth of M. smegmatis was measured using the BacTiter-Glo luminescence test system (Promega, Madison, WI, USA). The growth of the other species was determined by visual inspection of the microtiter plate and turbidimetry based on the optical density at 600 nm (OD600). The MIC was defined as the peptide concentration at which no bacterial growth was observed. We supplemented the test medium with either 150 mM NaCl or 1.25 mM CaCl2 to represent monovalent and divalent cations to simulate physiological conditions.

[1] = tested on: Micrococus luteus DSM 20030; assay type: cell-based, Micrococcus luteus; details: CAMB, 18 h, 37 °C, n = 4
Description: as §1
(§3) The MIC values were determined in 384-well microtiter plates with an assay volume of 20 µL. […] The growth of M. smegmatis was measured using the BacTiter-Glo luminescence test system (Promega, Madison, WI, USA). The growth of the other species was determined by visual inspection of the microtiter plate and turbidimetry based on the optical density at 600 nm (OD600). […]

E. coli ATCC 25922 = tested on: E. coli ATCC 25922
Description: as §1
The MIC values were determined in 384-well microtiter plates with an assay volume of 20 µL. Immediately before each assay, the cultures of test organisms (bacteria grown for 18 h, Candida albicans and M. smegmatis grown for 48 h) were diluted with the appropriate medium to a density of 1 × 10^6 cells/mL (C. albicans), 1 × 10^5 cells/mL (M. smegmatis) or 5 × 10^5 cells per mL (other species). The peptides were dissolved in sterile water at a concentration of 10.24 mg/mL and a 1:2 dilution series was prepared in a 384-well microtiter plate to achieve the concentration range 10,240–0.3125 µg/mL in a volume of 50 µL. We transferred 2-µL aliquots from this dilution series to new 384-well microtiter plates while using a CyBio-Well 384-channel automated pipettor (Analytic Jena, Jena, Germany) and added 18 µL of the diluted suspension of each test species using a Viafill reagent dispenser (Integra), thus reducing the final peptide concentration 10-fold to the range 1024–0.03125 µg/mL. The cells were incubated at 37 °C and 85% relative humidity, shaking at 180 rpm for 48 h (M. smegmatis), 24 h (C. albicans) or 18 h (other species). The growth of M. smegmatis was measured using the BacTiter-Glo luminescence test system (Promega, Madison, WI, USA). The growth of the other species was determined by visual inspection of the microtiter plate and turbidimetry based on the optical density at 600 nm (OD600). […] We supplemented the test medium with either 150 mM NaCl or 1.25 mM CaCl2 to represent monovalent and divalent cations to simulate physiological conditions.

Canida albicans FH2173 = assay type: cell-based, Candida albicans; details: CAMB, 24 h, 37 °C, n = 4
Description: as §1, §2

[2] = tested on: Acinetobacter baumannii ATCC 19606; assay type: cell-based; details: CAMB, 18 h, 37 °C, n = 4
Description: as §1, §2

[3] = tested on: Enterococcus faecium DSM 17050; assay type: cell-based; details: CAMB, 18 h, 37 °C, n = 4
Description: as §1, §2

[4] = tested on: Klebsiella pneumoniae DSM 30104; assay type: cell-based; details: CAMB, 18 h, 37 °C, n = 4
Description: as §1, §2

[5] = tested on: Listeria monocytogenes DSM 20600; assay type: cell-based; details: CAMB, 18 h, 37 °C, n = 4
Description: as §1, §2

[6] = tested on: Mycobacterium smegmatis ATCC 607; assay type: cell-based; details: BHI, 48 h, 37 °C, BacTiter-Glo, n = 4
Description: as §1, §2

[7] = tested on: Proteus mirabilis DSM 4479; assay type: cell-based; details: CAMB, 18 h, 37 °C, n = 4
Description: as §1, §2

[8] = tested on: Pseudomonas aeruginosa ATCC 27853; assay type: cell-based; details: CAMB, 18 h, 37 °C, n = 4
Description: as §1, §2

[9] = tested on: Staphylococcus aureus ATCC 25923; assay type: cell-based; details: CAMB, 18 h, 37 °C, n = 4
Description: as §1, §2

[10] = tested on: Staphylococcus epidermidis ATCC 35984; assay type: cell-based; details: CAMB, 18 h, 37 °C, n = 4
Description: as §1, §2

reference strains = test: MIC, several reference strains; assay type: cell-based; details: reference strains of Table 2
Description: as §1, §3

For “AACSLGSLLNVGCNSCACAAHCLATRGKNGACNSQRRCVCNK (disulfide (positions not given here)) [EtDef1]”, the MIC (S. aureus ATCC 33592) was >128 µg/mL, the MIC [1] was >128 µg/mL and the MIC (E. coli ATCC 25922; CAMB + A000160918 [4 µg/mL]) was >256 µg/mL. For the same sequence, the MIC (E. coli ATCC 25922; CAMB + A000161246 [4 µg/mL]) was >256 µg/mL, the MIC (E. coli ATCC 25922; CAMB + A000173031A [4 µg/mL]) was >256 µg/mL and the MIC (E. coli ATCC 25922; CAMB + A000173033A [4 µg/mL]) was >256 µg/mL. For the same sequence, the MIC (E. coli ATCC 25922; CAMB + A000173039A [0.25 µg/mL]) was >256 µg/mL, the MIC (E. coli ATCC 25922; CAMB + A000173380A [4 µg/mL]) was >256 µg/mL and the MIC (E. coli ATCC 25922; CAMB + A000498432A [4 µg/mL]) was >256 µg/mL. For the same sequence, the MIC (E. coli ATCC 25922; CAMB + A000499933A [0.0625 µg/mL]) was >256 µg/mL, the MIC (E. coli ATCC 25922; CAMB + A000500059A [0.0625 µg/mL]) was >256 µg/mL and the MIC (E. coli ATCC 25922; CAMB + A000500146A [0.0625 µg/mL]) was 128 µg/mL. For the same sequence, the MIC (E. coli ATCC 25922; CAMB + A000501181A [4 µg/mL]) was >256 µg/mL, the MIC (E. coli ATCC 25922; CAMB + Colistin E1 [0.016 µg/mL]) was 128 µg/mL and the MIC (E. coli ATCC 25922; CAMB + Colistin E2 [0.016 µg/mL]) was 4 µg/mL. For the same sequence, the MIC (E. coli ATCC 25922; CAMB + PMB [0.016 µg/mL]) was 1 µg/mL, the MIC (E. coli ATCC 25922; CAMB + PMBN [4 µg/mL]) was >256 µg/mL and the MIC (E. coli ATCC 25922; CAMB, 18 h, 37 °C, n = 4) was >128 µg/mL. The MIC (E. coli ATCC 25922; Table 6, CAMB) was >256 µg/mL, the MIC (Canida albicans FH2173) was >128 µg/mL and the MIC [2] was >128 µg/mL. For the same sequence, the MIC [3] was >128 µg/mL, the MIC [4] was >128 µg/mL and the MIC [5] was >128 µg/mL. For the same sequence, the MIC [6] was >128 µg/mL, the MIC [7] was >128 µg/mL and the MIC [8] was >128 µg/mL. For the same sequence, the MIC [9] was >128 µg/mL, the MIC [10] was >128 µg/mL and the “activity against the test strains” value (reference strains) was “inactive”.
